Measurements from patent US8940893B2, “Heteroaromatic compounds as BTK inhibitors” (Boehringer Ingelheim International GmbH, priority 2013, dated 2015).

biological target: full-length human His-tagged BTK (Homo sapiens (Human), UniProt Q06187); test: BTK HTRF assay (Cisbio KinEASE-TK); format: biochemical; conditions: 6 nM BTK, 15 min preincubation at 28° C., 30 uM ATP
Protocol: BTK Assay An HTRF assay (Cisbio KinEASE-TK cat #62TKOPEC) was performed to quantitate the ability of test compounds to inhibit BTK mediated phosphorylation of substrate. […] Then, 1 uM of TK substrate-biotin and 30 uM ATP were added and incubated for an additional 30 minutes at 28° C. Phospohrylation was detected by adding 62.5 nM Streptavidin-XL665 and TK-Antibody Cryptate diluted 1:100 in HTRF detection buffer (Cisbio cat #62SDBRDF) and incubated for 60 minutes at RT. The plate was read on an Envision plate reader and the fluoresence is measured at 620 nm (cryptate) and 665 nm (XL665). A ratio is calculated (665/620) and converted to POC relative to control and blank wells. Assay Buffer: […]

full-length human His-tagged BTK, sequence (Q06187 whole entry): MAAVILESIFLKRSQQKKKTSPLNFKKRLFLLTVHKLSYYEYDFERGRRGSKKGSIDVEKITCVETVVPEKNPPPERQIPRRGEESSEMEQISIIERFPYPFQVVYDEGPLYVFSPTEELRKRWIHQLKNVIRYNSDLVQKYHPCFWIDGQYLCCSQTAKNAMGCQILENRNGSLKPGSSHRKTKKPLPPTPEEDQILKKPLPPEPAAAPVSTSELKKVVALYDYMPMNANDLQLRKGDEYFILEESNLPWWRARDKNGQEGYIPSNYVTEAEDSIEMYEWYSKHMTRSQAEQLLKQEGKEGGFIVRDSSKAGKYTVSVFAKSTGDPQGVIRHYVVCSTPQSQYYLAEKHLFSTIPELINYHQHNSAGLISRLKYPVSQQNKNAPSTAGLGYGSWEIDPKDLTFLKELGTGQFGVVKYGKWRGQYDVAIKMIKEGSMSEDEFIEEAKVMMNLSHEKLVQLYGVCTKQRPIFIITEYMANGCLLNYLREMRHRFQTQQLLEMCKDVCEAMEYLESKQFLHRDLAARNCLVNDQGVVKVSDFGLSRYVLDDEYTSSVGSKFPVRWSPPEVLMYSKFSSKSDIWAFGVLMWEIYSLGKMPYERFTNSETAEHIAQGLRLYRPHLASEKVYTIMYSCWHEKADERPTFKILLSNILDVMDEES

SMILES | IC50 [nM]
C=CC(=O)N1CC2(CC(n3nc(-c4ccc(-c5cnc(Cc6ccccc6)n(C)c5=O)cc4F)c4c(N)ncnc43)C2)C1 [Example 6] | 0.85
Nc1ncnc2c1c(-c1ccc(Oc3ccccc3)cc1)nn2C1CC2(C1)CN(C(=O)C1CO1)C2 (stereo not shown) [Example 4] | 13
C=CC(=O)N1CC2(CC(n3nc(-c4ccc(Oc5ccccc5)cc4)c4c(N)ncnc43)C2)C1 [Example 1] | 1
CN(C)C/C=C/C(=O)N1CC2(CC(n3nc(-c4ccc(Oc5ccccc5)cc4)c4c(N)ncnc43)C2)C1 [Example 2] | 1.8
C=CC(=O)N1CC2(CC(n3nc(-c4ccc(Oc5ccccc5)nc4)c4c(N)ncnc43)C2)C1 [Example 8] | 2.4
C/C=C/C(=O)N1CC2(CC(n3nc(-c4ccc(Oc5ccccc5)nc4)c4c(N)ncnc43)C2)C1 [Example 9] | 83
C=CC(=O)N1CCC2(CC(n3nc(-c4ccc(Oc5ccccc5)cc4)c4c(N)ncnc43)C2)C1 (stereo not shown) [Example 5] | 0.87
CC#CC(=O)N1CC2(CC(n3nc(-c4ccc(Oc5ccccc5)nc4)c4c(N)ncnc43)C2)C1 [Example 7] | 1.1
CN(C)C/C=C/C(=O)N1CC[C@]2(C1)C[C@H](n1nc(-c3ccc(Oc4ccccc4)cn3)c3c(N)ncnc31)C2 [Example 17] | 7.1
CC#CC(=O)N1CC2(CC(n3nc(-c4ccc(Oc5ccccc5)cc4)c4c(N)ncnc43)C2)C1 [Example 3] | 0.83
CN(C)C/C=C/C(=O)N1CC[C@]2(C1)C[C@@H](n1nc(-c3ccc(Oc4ccccc4)cn3)c3c(N)ncnc31)C2 [Example 16] | 8.1
CC#CC(=O)N1CC[C@]2(C1)C[C@@H](n1nc(-c3ccc(Oc4ccccc4)cn3)c3c(N)ncnc31)C2 [Example 13] | 0.74
CN(C)C/C=C/C(=O)N1CC2(CC(n3nc(-c4ccc(Oc5ccccc5)cn4)c4c(N)ncnc43)C2)C1 [Example 15] | 32
